The source of these data is patent US8987217B2, “Modified saponins for the treatment of fungal infections” (The General Hospital Corporation, priority 2010, dated 2015).

The test system of series [1] is C. albicans strain DAY185. Nature of the series: in vitro antifungal activity (MIC) in the co-inoculation assay, turbidity read visually. Particulars: co-inoculation assay, two-fold serial dilutions, C. albicans DAY185. Type of series: cell-based. The protocol:
(§1) The procedure for the co-inoculation antifungal compound screen were conducted as previously described (Okoli et al., PLoS ONE, 4:e7025 (2009); Tampakakis et al., Nat Protocols, 3:1925-1931 (2008)), using the C. albicans strain DAY185 (Davis et al., Infect Immun, 68:5953-5959 (2000)) and the C. elegans glp-4;sek-1 double mutant.
The determination of the lowest concentration of the selected compounds showing in vitro antifungal activity was accomplished by following the steps detailed in the co-inoculation assay, using two-fold serial dilutions of the test compounds.

Series [2] relates to C. albicans DAY185 hyphae. Kind of series: in vitro hyphal inhibition in RPMI 1640. Type of series: cell-based. As for the experimental part:
(§2) Caspofungin (Merck) served as a known antifungal compound control. In vitro hyphal inhibition was assessed by incubation of DAY185 in RPMI 1640 media at 37° C. After 48 hours the cultures were visually inspected for hyphal formation by microscopy. The ability of the antifungal compound A16, at either 2 or 4 μg/mL, to induce osmotic stress was assessed using DAY185 grown in a 96 well microtiter plate containing RPMI 1640 media and NaCl, ranging in concentrations from 0-2 M in 0.25 M increments. The growth of the fungus was measured spectrophotometrically after 48 hours of growth at 35° C.
C. albicans biofilms are composed of hyphae, pseudohyphae, yeast cells, and an extracellular matrix, where the hyphae play an integral role within this complex. In order to address the reduction in biofilm formation in the presence of saponins, we tested the ability of compound A16 to inhibit hyphae formation at various concentrations in RPMI.

Series [3] relates to C. elegans. Kind of series: toxicity to the nematode in dose response experiments. Particulars: dose response experiments, higher concentrations. The source says: (§3) This assay allows simultaneous assessment of a compound's potential toxicity and the ability to promote the survival of the nematode in the presence of C. albicans, including modes of action not traditionally considered in antifungal assays such as impeding a fungal virulence factor or promoting host immune response. We performed a screen of 2,560 natural products representing a fraction of the Analyiticon Discovery compound collection (ac-discovery.com) housed at the Broad Institute of Harvard and MIT (Cambridge, Mass.). […] These natural products identified in the primary screen were retested and confirmed (FIG. 1; Table 1). […] Moreover, although the antifungal effects of some of these saponins have been reported (Sata et al., Biosci Biotechnol Biochem, 62:1904-1911 (1998); Ohtani et al., Phytochem, 33:83-86 (1993)), their efficacy against Candida spp. has not been studied.
Representatives of the saponins family are able to disrupt cellular membranes and the lytic activity on erythrocytes has been used as an assay for some saponins Francis et al., British Journal of Nutrition, 88:587-605 (2002)). This property is derived from the affinity of some saponins for binding cholesterol forming insoluble pores composed of the sterol and saponins (Bangham et al., Nature, 196:952-953(1962); Glauert et al., Nature, 196:953-955 (1962)). […] The dose-response experiments previously used to determine the EC50 and approximate the MIC can also indicate if the saponins maybe toxic to C. elegans and potentially to mammalian cells.

Series [4] relates to C. albicans. Kind of series: C. elegans-C. albicans co-inoculation assay, nematode survival. In kind it is in vivo. The protocol: as §1, §3
After confirmation of these hits, dose response experiments were conducted to determine the concentration that provided maximum nematode survival. The compounds conferred a range of nematode survival from 27% (compound A6) to 93% (compounds A2, A7, A24, and A25), however, with the exception of A6, all compounds conferred a nematode survival over 65% (FIG. 1).

The subject of series [5] is C. albicans cells. Kind of series: photosensitizer uptake by fluorescence spectrofluorimetry. Particulars: addition of A16 to RB, ce6, PEI-ce6. Type of series: cell-based. The protocol: In order to confirm that the increase in phototoxicity observed by combining the different PS with A16 is actually due to an increase of cellular uptake of the PS by the cells and to document that the antifungal efficacy of saponins against C. albicans is associated with increased permeability, the amount of dye within the cell was measured by fluorescence spectrofluorimetry.
Cell suspensions (10^8 cells/mL) were incubated in the dark as above using the same concentrations as for the PDI assays measured as μM PS equivalent (final concentration in incubation medium). Incubations were carried out in triplicate. Cell suspensions were centrifuged (12000 rpm, 1 min) and washed twice in 1 mL sterile PBS. The cell pellet was dissolved in 1.5 mL 0.1 M NaOH/1% SDS for 24 h to yield a homogenous solution. Uptake was determined by measurement of fluorescence in black 96-well flat-bottom plates (Costar) in a final volume of 200 μL using a Spectramax Gemini spectrofluorimeter (Molecular Devices) at 400 nmex/580-700 nmem for ce6, PEI-ce6 and 552 nmex/555-620 nmem for RB. Uptake values were obtained as previously described (Tegos et al., Antimicrob Agents Chemother, 50:196-203(2006)).
The cellular uptake of dye can be expressed as molecules per cell by correlation of the extracted PS concentration with the number of C. albicans cells present.

The test system of series [6] is C. albicans DAY185. Nature of the series: NaCl induced osmotic stress growth assay. Particulars: 2 μg/mL A16; untreated control 1.25 M. Type of series: cell-based. As for the experimental part:
as §2
The C. albicans cell wall and membrane are important for osmoregulation to maintain proper physiological conditions to carryout enzymatic reactions. Since saponins are able to disrupt the fungal cell membrane, external osmotic stress should also have detrimental effects on the fungal cell. C. albicans was grown in the presence of 2 μg/mL of compound A16 under various salt concentrations to assess the effect the saponin has on salt induced osmotic stress.

In brackets after ≈: the same amount, converted by molar mass.

Turning to `CC1CC[C@@]2(OC1)O[C@H]1CC3C4C[C@@H](O)C5C[C@@H](O[C@@H]6O[C@H](CO)[C@H](O[C@@H]7O[C@H](CO)[C@@H](O)[C@H](O[C@@H]8OC[C@@H](O)[C@H](O)[C@H]8O)[C@H]7O[C@@H]7O[C@H](CO)[C@@H](O)[C@H](O)[C@H]7O)[C@H](O)[C@H]6O)[C@H](O)C[C@]5(C)C4CC[C@]3(C)[C@H]1[C@@H]2C` (some centres unmarked) [A16, Aginoside], in series [1], the MIC in vitro was determined as 47.0 µg/mL (≈ 44 µM). The hyphae formation result in series [2] (1 μg/mL) is reported as “visible reduction in the number of hyphae”; in series [2] (2 μg/mL) it was “very few hyphae formed”. The “toxicity to the nematode” value in series [3] was “none of the concentrations used in the dose response experiment showed signs of toxicity”. This compound also came in with a maximum nematode survival in series [4] (dose response, C. albicans-infected C. elegans) of 67%. Also, the EC50 in vivo in series [4] (dose that resulted in 50% survival of C. albicans-infected nematodes) worked out at 47.0 µg/mL (≈ 44 µM). Also, the “effect on uptake of PS by the cells” value in series [5] was “dramatically increased the uptake of PS”. In series [6], the “NaCl concentration at which the fungus was unable to grow” value came to 0.5 M.
